Data set [1] deals with Leishmania donovani axenic amastigotes (MHOM-ET-67/L82 strain). The data set is described as follows: In vitro activity against L. donovani axenic amastigotes (resazurin). Type of data set: cell-based. The conditions noted are these: for IC50: Leishmania donovani. The procedure: (§1) In vitro tests for determination of activity against axenic amastigotes of Leishmania donovani (MHOM-ET-67/L82 strain) and cytotoxicity against mammalian cells (L6-cell-line from rat skeletal myoblasts) as well as against intramacrophage amastigotes of L. donovani were conducted at Swiss TPH according to an established protocol as reported before. For a repetition of these methods, see Supplementary File.
Miltefosine (≥98%, Sigma-Aldrich, Buchs, Switzerland) and podophyllotoxin (≥98%, Sigma-Aldrich, Buchs, Switzerland) were used as positive controls. Growth inhibition assays were meant to give only preliminary information on whether fractions show any bioactivity or not. Due to this explorative nature, this was conducted once. IC50 values represent geometric means of two independent determinations and were calculated by linear regression from the sigmoidal dose inhibition curves using SoftmaxPro (Molecular Devices Cooperation, Sunnyvale, CA, USA) software.
(§2) Biological Assays (according to [14,15])
(§3) The following biological tests were performed by applying validated method s of the Swiss TPH as previously published and described below. […]
(§4) After that, resazurin solution
(§5) (12.5 mg in 100 mL water, 10 μL) was added to each well, and the incubation continued for 2–4 h more. Then, the plates were read using a Spectramax Gemini XS microplate fluorometer (Molecular Devices Cooperation, Sunnyvale, CA, USA) and excitation and emission wavelengths of 536 and 588 nm, respectively. Data were analyzed with the software Softmax Pro (Molecular Devices Cooperation, Sunnyvale, CA, USA), which calculated IC50 values by linear regression and 4‐parameter logistic regression from the sigmoidal dose inhibition curves. […]
In vitro activity against L. donovani axenic amastigotes. Amastigotes of L. donovani strain MHOM/ET/67/L82 were grown in axenic culture at 37 °C in SM medium at pH 5.4 supplemented with 10% heat‐inactivated fetal bovine serum under a 5% CO2 atmosphere. Aliquots containing […] amastigotes from the axenic culture (100 μL), with or without a serial compound dilution (as specified before), were seeded in 96‐well plates. After 70 h of incubation, the plates were inspected under an inverted microscope to assure growth of the controls and sterile conditions.
Then, resazurin solution (12.5 mg in 100 mL water, 10 μL) was added to each well and the plates incubated for another 2 h. Finally, the plates were read using the same conditions mentioned for T. brucei rhodesiense. Data were analyzed in the same way. Miltefosine was used as positive control. […]
(§6) Netherlands). Compounds were diluted with medium as indicated above before being added to parasite cultures incubated in RPMI 1640 medium without hypoxanthine, supplemented with HEPES (5.94 g/L), NaHCO3 (2.1 g/L), neomycin (100 U/mL), AlbumaxR (5 g/L) and washed human red cells A+ at 2.5% hematocrit (0.3% parasitemia).
Serial compound dilutions were prepared as before. The 96‐well plates were incubated in a humidified atmosphere at 37 °C; 4% CO2, 3% O2, 93% N2. After 48 h, 50 μL of 3H‐hypoxanthine (0.5 μCi) was added to each well of the plate. The plates were incubated for a further 24 h under the same conditions. […] The dried filters were inserted into a plastic foil with 10 mL of scintillation fluid and counted in a Betaplate™ liquid scintillation counter (Wallac, Zurich, Switzerland). […]
For orientation: The colour change of resazurin is a common sign of viable cells or microbes.

A short description of data set [2]: In vitro cytotoxicity with L-6 cells (resazurin). It counts as cell-based. The conditions noted are these: rat, read-out: Cytotoxicity against L6 Rat Skeletal Myoblasts IC50. The protocol: as §1, §2, §3, §4, §5
Aliquots containing 105 amastigotes from the axenic culture (100 μL), with or without a serial compound dilution (as specified before), were seeded in 96‐well plates. After 70 h of incubation, the plates were inspected under an inverted microscope to assure growth of the controls and sterile conditions. […]
as §6
Serial compound dilutions were prepared as before. The 96‐well plates were incubated in a humidified atmosphere at 37 °C; 4% CO2, 3% O2, 93% N2. After 48 h, 50 μL of 3H‐hypoxanthine (0.5 μCi) was added to each well of the plate. The plates were incubated for a further 24 h under the same conditions. The plates were then harvested with a Betaplate™ cell harvester (Wallac, Zurich, Switzerland), and the red blood cells were transferred onto a glass fiber filter then washed with distilled water. The dried filters were inserted into a plastic foil with 10 mL of scintillation fluid and counted in a Betaplate™ liquid scintillation counter (Wallac, Zurich, Switzerland). […]
(§7) Serial compound dilutions prepared, as before, were us ed. […] Finally, the plates were read, and the data were treated as mentioned before. […]
Extracellular amast igotes were removed by triplicate washing after further 24 h. […] Images of the plates were recorded with an ImageXpress XLS (MD) microscope and automatically analyzed using the MetaXpress Software. […]

Data set [3] has as its system Leishmania donovani intracellular amastigotes. The data set is described as follows: In vitro activity against intracellular amastigotes of L. donovani in peritoneal murine macrophages. Type of data set: cell-based. The conditions noted are these: Macrophage. The protocol:
as §1, §2, §3
Serial compound dilutions were prepared as before. […] The dried filters were inserted into a plastic foil with 10 mL of scintillation fluid and counted in a Betaplate™ liquid scintillation counter (Wallac, Zurich, Switzerland). […]
as §7
Extracellular amast igotes were removed by triplicate washing after further 24 h. […] Images of the plates were recorded with an ImageXpress XLS (MD) microscope and automatically analyzed using the MetaXpress Software. Infected and non‐infected macrophages, as well as the number of intracellular parasites, were recorded. […]

Data set [4] concerns Leishmania donovani axenic amastigotes (MHOM-ET-67/L82 strain). More on the design: method as in PMID 21157686. The conditions noted are these: cited from earlier work.
Data set [5] deals with P. falciparum NF54 strain erythrocytic stages. More on the design: method as in PMID 21157686. The conditions noted are these: cited from earlier work.
The mark [6] stands for this setting: geometric mean of two independent determinations.
[7] abbreviates: geometric mean of two independent determinations (lower; upper).

Several values for one entry are separate records, joined by “and”; a condition that tells them apart may be missing. Equal entries are not always repeated. Where two headings read alike, the source gives them in different places.

The term IC50 denotes the midpoint of a concentration-inhibition curve.

On to `C[C@H]1[C@H](C)CC[C@]2(C)CC[C@]3(C)C(=CC[C@@H]4[C@@]5(C)CC[C@@H](O)[C@](C)(C(=O)O)[C@@H]5CC[C@]43C)[C@H]12` [Compound 3, β-boswellic acid], for which the “SI (selectivity index)” value in data set [1] (L6 cytotoxicity vs L. donovani axenic amastigotes) is listed as 6.2. The values for the concentration for half-maximal inhibition (IC50) in data set [1] (setting [6]) and in data set [1] (setting [7]) were 5300 nM and 2.4 µg/mL, respectively. In addition, the concentration for half-maximal inhibition (IC50) at 70 h in data set [2] (setting [7]) amounted to 15 µg/mL; in data set [2] (setting [6]), 33000 nM.

For `CCCCCCCCCCCCCCCCOP(=O)([O-])OCC[N+](C)(C)C` [PCM, miltefosine], the IC50 in data set [1] (setting [6]) was 120 nM; in data set [1] (setting [7]), 0.047 µg/mL; in data set [3], 1.9 µg/mL and 4.7 µM.

For the compound `COc1cc([C@@H]2c3cc4c(cc3[C@H](O)[C@H]3COC(=O)[C@H]23)OCO4)cc(OC)c1OC` [PCP, podophyllotoxin], the IC50 at 70 h in data set [2] (setting [7]) was 0.009 µg/mL; in data set [2] (setting [6]), 20 nM.

Regarding `C/C1=C\CC/C(C)=C/C[C@](O)(C(C)C)CC/C(C)=C/CC1` [Serratol], in data set [4], the “activity against L. donovani axenic amastigotes” value is “essentially inactive”. Besides, in data set [5], the “antiplasmodial activity in vitro” value is recorded as “antiplasmodial activity”.
